The record followed here is ChEMBL document CHEMBL1155666, “Zygosporin D and two new cytochalasins produced by the fungus Metarrhizium anisopliae” (2000).

Test [1] concerns Oryza sativa. The test is described as follows: Growth retardation of rice seedlings assessed as second leaf sheath length at 1 nmol after 72 hrs exposure to continuous fluorescent light relative to control. In kind it is functional.
In test [2] the test system is Oryza sativa. The test is described as follows: Growth retardation of rice seedlings assessed as reduction in second leaf sheath length at 1 nmol after 72 hrs exposure to continuous fluorescent light relative to water. The test is classed as functional. Also on record: scale not given: the % may be the effect or the level left.

For the compound `C[C@H]1[C@H]2[C@H](Cc3ccccc3)NC(=O)[C@]23[C@H](O)/C=C/[C@@](C)(O)C(=O)[C@@H](C)C/C=C/[C@H]3C(=O)[C@@H]1C`, the Activity with Oryza sativa [1] is given as 94%. Turning to `CC1=C(C)[C@H]2[C@H](Cc3ccccc3)NC(=O)[C@]23[C@H](O)/C=C/[C@@](C)(O)C(=O)[C@@H](C)C/C=C/[C@H]3[C@@H]1O` [DEACETYLCYTOCHALASIN C], the Activity in the test with Oryza sativa [1] is on record as 83%. For the compound `C=C1[C@@H](C)[C@H]2[C@H](Cc3ccccc3)NC(=O)[C@]23[C@H](O)/C=C/[C@@](C)(O)C(=O)[C@@H](C)C/C=C/[C@H]3[C@@H]1O` [ZYGOSPORIN D], the Activity in the test on Oryza sativa [2] was found to be 41%.
